Results published in PMC4706618, “Comparison of bactericidal and cytotoxic activities of trichogin analogs” (Data in Brief, 2015).
≈ marks a conversion by molar mass, not a printed value. Like-named read-outs stand apart in the source and are kept apart here. Non-standard residues stand in square brackets, D forms with d. Residues, ends and D or L forms follow the SMILES beside them. *: point of attachment. Leu(ol) = CC(C)C[C@H](N)CO; Octanoyl = CCCCCCCC(=O)*; Aib = CC(C)(N)C(=O)O

Columns and labels:
[1] = Cytotoxicity on human cells, MTS reduction and LDH release; assay type: cell-based; settings: human, from MTS and LDH EC50 values, compared with trichogin, all cell models, read-out: reduction of cytocidal effect / cell toxicity (% inhibition)
Experimental: (§1) To monitor the possible differential cytocidal effect of trichogin and its analogs on human cells (healthy and cancer cells, non-leukocytes and leukocytes), we incubated the peptides with (i) primary human leukocytes (lymphocytes, PMNs and monocytes), freshly isolated from blood of healthy donors (ii) the monocytes-like HL60 cell line from human myeloid leukemia, and (iii) three tumor-derived non-leukocyte cells lines: HeLa ([…]), A431 (human epidermoid carcinoma) and A549 (human lung carcinoma) and the in vitro stabilized line CCD34Lu (from human normal lung).
(§2) HeLa, A431 and CCD34-Lu cells were maintained in DMEM medium (Gibco), A549 in F12 medium (Gibco) and HL60 in RPMI medium (Gibco), supplemented with 10% FCS (Euroclone) and antibiotics (penicillin and streptomycin, 100 U/ml, Invitrogen) at 37 °C in a humidified atmosphere containing 5% (v/v) CO2; cells were split every 2–3 days. Human monocytes, polymorphonuclear leukocytes (PMNs) and lymphocytes were purified from buffy coats of healthy donors, kindly provided by the Centro Immunotrasfusionale, Hospital of Padova. Briefly, for monocyte purification, peripheral blood mononuclear cells (PBMC) were isolated from buffy coats of healthy donors by density gradient centrifugation on Ficoll-Paque Plus (GE Health care), which density is optimized for the isolation of mononuclear cells. Separate monocyte and T-cell fractions were obtained from PBMCs by Percoll density gradient centrifugation (GE Health care); residual lymphocytes were removed by incubation in 2% fetal calf serum (FCS) RPMI at 37 °C and subsequently washed to eliminate non adherent cells. Unless otherwise specified, cells were kept at 37 °C in a humidified atmosphere containing 5% (v/v) CO2 in RPMI-1640 supplemented with 10% FCS. For PMNs purification, the pellet of cells obtained after the centrifugation on Ficoll gradient was subjected to dextran erythrocytes precipitation; residual erythrocytes were removed by hypotonic lysis in 155 mM NH4Cl, 10 mM KHCO3, and […] Na2EDTA at pH 7.4 and cells were cultured in RPMI medium, supplemented with 10% FCS. For lymphocytes preparation, buffy coats were incubated with 50 μl/ml of Rosette Sep® Human T Cell Enrichment Cocktail (StemCell Technologies). Blood was then centrifuged over a Ficoll gradient and cells were cultured in RPMI medium, supplemented with 10% FCS.
(§3) Twenty-four hours before the experiment, A431, HeLa, A549 and CC34-Lu cells were detached by means of trypsin treatment (Gibco), counted and seeded onto a 96 wells/plate (8×10^3 cells/well, Falcon). After purification, monocytes were seeded onto a 96 wells/plate (2×10^6/well) and left to adhere to the plastic; then cells were immediately treated with stimuli. PMNs and lymphocytes (2×10^6 cells/well) and HL60 cells (40×10^3) were seeded onto cell plates and subsequently treated. Different peptides were diluted in culture medium (from 20 μM to 1 μM) and added to the cells. As a […] control cells were treated with medium without stimuli. Twenty-four hours after treatment, the cell supernatant was collected for subsequent assay (LDH assay) and cells were tested using a CellTiter 96® AQueous One Solution Reagent (Promega). Plates were read with an ELISA reader (Amersham Biosciences) at 492 nm. Data were expressed as % of absorbance value compared to untreated cells (assumed as 100% viable). Alternatively, the EC50 (the concentration of drug where 50% of cells died) was calculated for each peptide and each kind of tested cell.
(§4) 50 μl of the cell supernatant was tested with a CytoTox 96® Non-Radioactive Cytotoxicity Assay kit (Promega). EC50 (the concentration of drug that induced the lysis of 50% of the total cell number) was calculated for each peptide and each kind of tested cell.

P. aeruginosa ATCC 25668 = assay type: cell-based, Pseudomonas aeruginosa
Experimental: (§5) E. coli ATCC 25922, the methicillin-resistant strain of S. aureus, ATCC BAA-44, P. aeruginosa ATCC 25668 and S. epidermidis ATCC 700565 was a kind gift of Prof. Elena Reddi (Dept. of Biology, University of Padova, Italy). Cultures were maintained in Luria Bertani (LB) agar. MICs (Minimal inhibitory concentrations) of the peptides were determined using the broth microdilution method. Two-fold serial dilutions of each peptide, from 1 to 64 μM, were prepared in LB and 50 μl per well were arranged in sterile 96-well plates (Falcon). Then, an aliquot of bacterial cell suspension was added to each well, at a final concentration of 5×10^5 CFU/ml.

[2] = system: S. aureus, ATCC BAA-44 (methicillin-resistant strain); assay type: cell-based, Staphylococcus aureus
Experimental: as §5

E. coli ATCC 25922 = assay type: cell-based, Escherichia coli
Experimental: as §5

[3] = system: S. epidermidis ATCC 700565; assay type: cell-based, Staphylococcus epidermidis
Experimental: as §5

[4] = system: human cells (lymphocytes, PMNs, monocytes, HL60, HeLa, A431, A549, CCD34Lu); test: Cytotoxicity on human cells, MTS reduction and LDH release; assay type: cell-based; settings: 24 h, MTS/LDH EC50, all tested cells; in words
Experimental: as §1, §2, §3, §4

[5] = system: Gram^− and Gram^+ bacteria; test: Antibacterial activity, all strains taken together; assay type: cell-based; settings: additional U at position 6 or U1 replaced with L; in words
Experimental: as §5

[6] = after 24 h at 37 °C, broth microdilution in LB, 5×10^5 CFU/ml, ±SE, N≥4, peptide dose range 0–64 µM

Structure (SMILES)	inhibition at 24 h [1] [%]	MIC P. aeruginosa (P. aeruginosa ATCC 25668; [6]) [µM]	change of anti S. aureus activity compared with trichogin ([2]; MIC after 24 h, in words)	MIC S. aureus [2, 6] [µM]	MIC E. coli (E. coli ATCC 25922; [6]) [µM]	MIC S. epidermis [3, 6] [µM]	MIC P. aeruginosa (P. aeruginosa ATCC 25668; ATCC 25668, 24 h) [µM]	MIC S. aureus ([2]; ATCC BAA-44, 24 h) [µM]	MIC E. coli (E. coli ATCC 25922; ATCC 25922, 24 h) [µM]	MIC S. epidermis ([3]; ATCC 700565, 24 h) [µM]	cytotoxicity compared with trichogin or the corresponding analog [4]	antibacterial activity compared with the K-containing analogs [5]
CCCCCCCC(=O)N[C@@H](CC(C)C)C(=O)NCC(=O)N[C@@H](CC(C)C)C(=O)N[C@@H](CC(C)C)C(=O)NCC(=O)NCC(=O)N[C@@H](CC(C)C)C(=O)N[C@@H](CC(C)C)C(=O)NCC(=O)N[C@H](C(=O)N[C@H](CO)CC(C)C)[C@@H](C)CC [L1L4L8] (Octanoyl-LGLLGGLLGI[Leu(ol)])	50 to 70											
CCCCCCCC(=O)NC(C)(C)C(=O)NCC(=O)N[C@@H](CC(C)C)C(=O)N[C@@H](CC(C)C)C(=O)NCC(=O)NCC(=O)N[C@@H](CC(C)C)C(=O)NC(C)(C)C(=O)NCC(=O)N[C@H](C(=O)N[C@H](CO)CC(C)C)[C@@H](C)CC [L4] (Octanoyl-[Aib]GLLGGL[Aib]GI[Leu(ol)])	50 to 70	>64	no such increase	>64	>64	>64						
CCCCCCCC(=O)NC(C)(C)C(=O)NCC(=O)N[C@@H](CC(C)C)C(=O)NC(C)(C)C(=O)N[C@@H](CCCCN)C(=O)N[C@@H](CCCCN)C(=O)N[C@@H](CC(C)C)C(=O)NC(C)(C)C(=O)NCC(=O)N[C@H](C(=O)N[C@H](CO)CC(C)C)[C@@H](C)CC [K5K6]	50 to 60						16 ± 0 (≈ 19.3 µg/mL)	4 ± 0 (≈ 4.83 µg/mL)	16 ± 0 (≈ 19.3 µg/mL)	4 ± 1 (≈ 4.83 µg/mL)		
CCCCCCCC(=O)NC(C)(C)C(=O)N[C@@H](CCCCN)C(=O)N[C@@H](CC(C)C)C(=O)NC(C)(C)C(=O)N[C@@H](CCCCN)C(=O)NCC(=O)N[C@@H](CC(C)C)C(=O)NC(C)(C)C(=O)NCC(=O)N[C@H](C(=O)N[C@H](CO)CC(C)C)[C@@H](C)CC [K2K5] (Octanoyl-[Aib]KL[Aib]KGL[Aib]GI[Leu(ol)])							16 ± 5 (≈ 19.3 µg/mL)	3.3 ± 1.3 (≈ 3.99 µg/mL)	13.7 ± 3.9 (≈ 16.6 µg/mL)	5 ± 2.4 (≈ 6.04 µg/mL)		
CCCCCCCC(=O)NC(C)(C)C(=O)N[C@@H](CCCCN)C(=O)N[C@@H](CC(C)C)C(=O)NC(C)(C)C(=O)NCC(=O)N[C@@H](CCCCN)C(=O)N[C@@H](CC(C)C)C(=O)NC(C)(C)C(=O)NCC(=O)N[C@H](C(=O)N[C@H](CO)CC(C)C)[C@@H](C)CC [K2K6] (Octanoyl-[Aib]KL[Aib]GKL[Aib]GI[Leu(ol)])							17.6 ± 8.8 (≈ 21.3 µg/mL)	2.8 ± 1.1 (≈ 3.38 µg/mL)	12.6 ± 4.3 (≈ 15.2 µg/mL)	3.2 ± 2.6 (≈ 3.87 µg/mL)		
CCCCCCCC(=O)NC(C)(C)C(=O)N[C@@H](CCCCN)C(=O)N[C@@H](CC(C)C)C(=O)NC(C)(C)C(=O)N[C@@H](CCCCN)C(=O)NC(C)(C)C(=O)N[C@@H](CC(C)C)C(=O)NC(C)(C)C(=O)N[C@@H](CCCCN)C(=O)N[C@H](C(=O)N[C@H](CO)CC(C)C)[C@@H](C)CC [K2K5K9U6] (Octanoyl-[Aib]KL[Aib]K[Aib]L[Aib]KI[Leu(ol)])							8 ± 0 (≈ 10.5 µg/mL)	4 ± 0 (≈ 5.23 µg/mL)	8 ± 0 (≈ 10.5 µg/mL)	8 ± 0 (≈ 10.5 µg/mL)	increased cytotoxicity	failed to increase the antibacterial activity
CCCCCCCC(=O)N[C@@H](CC(C)C)C(=O)NCC(=O)N[C@@H](CC(C)C)C(=O)NC(C)(C)C(=O)NCC(=O)NCC(=O)N[C@@H](CC(C)C)C(=O)NC(C)(C)C(=O)N[C@@H](CCCCN)C(=O)N[C@H](C(=O)N[C@H](CO)CC(C)C)[C@@H](C)CC [L1K9] (Octanoyl-LGL[Aib]GGL[Aib]KI[Leu(ol)])		>64		4.7 ± 1.6 (≈ 5.48 µg/mL)	41.1 ± 15.6 (≈ 47.9 µg/mL)	4.6 ± 1.5 (≈ 5.36 µg/mL)					not significantly different	failed to increase the antibacterial activity
CCCCCCCC(=O)NC(C)(C)C(=O)N[C@@H](CCCCN)C(=O)N[C@@H](CC(C)C)C(=O)NC(C)(C)C(=O)N[C@@H](CCCCN)C(=O)NCC(=O)N[C@@H](CC(C)C)C(=O)NC(C)(C)C(=O)N[C@@H](CCCCN)C(=O)N[C@H](C(=O)N[C@H](CO)CC(C)C)[C@@H](C)CC [K2K5K9] (Octanoyl-[Aib]KL[Aib]KGL[Aib]KI[Leu(ol)])							13.3 ± 4.1 (≈ 17 µg/mL)	4.3 ± 1.8 (≈ 5.5 µg/mL)	14.9 ± 8.6 (≈ 19.1 µg/mL)	4 ± 0.9 (≈ 5.12 µg/mL)		
CCCCCCCC(=O)N[C@@H](CC(C)C)C(=O)NCC(=O)N[C@@H](CC(C)C)C(=O)NC(C)(C)C(=O)NCC(=O)NCC(=O)N[C@@H](CC(C)C)C(=O)N[C@@H](CC(C)C)C(=O)NCC(=O)N[C@H](C(=O)N[C@H](CO)CC(C)C)[C@@H](C)CC [L1L8] (Octanoyl-LGL[Aib]GGLLGI[Leu(ol)])							>64	32 ± 0 (≈ 35.9 µg/mL)	>64	>64		
CCCCCCCC(=O)N[C@@H](CC(C)C)C(=O)N[C@@H](CCCCN)C(=O)N[C@@H](CC(C)C)C(=O)NC(C)(C)C(=O)NCC(=O)NCC(=O)N[C@@H](CC(C)C)C(=O)NC(C)(C)C(=O)NCC(=O)N[C@H](C(=O)N[C@H](CO)CC(C)C)[C@@H](C)CC [L1K2] (Octanoyl-LKL[Aib]GGL[Aib]GI[Leu(ol)])							>64	4.6 ± 1.5 (≈ 5.36 µg/mL)	22.9 ± 8.6 (≈ 26.7 µg/mL)	4.7 ± 1.6 (≈ 5.48 µg/mL)	not significantly different	failed to increase the antibacterial activity
CCCCCCCC(=O)NC(C)(C)C(=O)NCC(=O)N[C@@H](CC(C)C)C(=O)NC(C)(C)C(=O)N[C@@H](CCCCN)C(=O)NCC(=O)N[C@@H](CC(C)C)C(=O)NC(C)(C)C(=O)NCC(=O)N[C@H](C(=O)N[C@H](CO)CC(C)C)[C@@H](C)CC [K5] (Octanoyl-[Aib]GL[Aib]KGL[Aib]GI[Leu(ol)])				1 ± 0 (≈ 1.14 µg/mL)		2 ± 0 (≈ 2.28 µg/mL)	>64		8 ± 2 (≈ 9.1 µg/mL)			
